Experimental data taken from patent US20070060620A1, “Use of RAR retinoid agonists to increase sperm count and sperm mobility in males” (priority 2005, published 2007).

Experiments:
[1] = test system: sperm count and sperm motility; conditions: oral retinoids used for psoriasis or acne; cited from earlier work
[2] = phase 2 studies in patients with psoriasis and acne: systemic side-effect profile; format: in vivo, human; conditions: compared with acitretin/etretinate and isotretinoin
[3] = plasma levels and half-life after clinical dosing with tazarotene; format: in vivo
Excerpt: Thus, tazarotene and other RAR-specific retinoids are used in the method of the present invention to help with male infertility that is due to low sperm counts and/or low sperm motility. Furthermore, retinoids such as tazarotene may be used in any situation in which couples are trying to conceive, where a boost to sperm production/motility could bring about an increase in the chances that a female could become pregnant. As a practical matter, since retinoids at doses likely to be effective in these circumstances are highly teratogenic, an unintended effect might arise from the transfer of the retinoid to a female in the ejaculate of the male. […] Thus, in a period of 3 days, levels of retinoid in plasma (and also in seminal fluid) would be less than 2%, and after about one week would be less than 0.01% of the original levels. Clinical dosing with tazarotene (eg at 3-6 mg) provide levels of tazarotenic acid (the major metabolite of tazarotene) in plasma of about 75-150 ng/mL study. Thus, in 3 days, plasma levels would be expected to drop to about 2-3 ng/mL (endogenous levels of retinoid agonists such as tretinoin, isotretinoin and 4-oxo-13-cis retinoic acid may easily total over 6 ng/mL). Sperm count and motility are likely to remain elevated for some time, since sperm maturation occurs over a period of 72-74 days.

Row | SMILES | effect on sperm count and sperm motility [1] | systemic side-effect profile [2] | levels of retinoid in plasma (and also in seminal fluid) relative to the original levels ([3]; after about one week of washout) | half-life ([3]; human, plasma, read-out: effective half-life in plasma) [h] | levels of retinoid in plasma (and also in seminal fluid) relative to the original levels ([3]; in a period of 3 days of washout)
1 | COc1cc(C)c(/C=C/C(C)=C/C=C/C(C)=C/C(=O)O)c(C)c1C [acitretin] | increase in sperm count and sperm motility | – | – | – | –
2 | CCOC(=O)/C=C(C)/C=C/C=C(C)/C=C/c1c(C)cc(OC)c(C)c1C [etretinate] | increase in sperm count and sperm motility | – | – | – | –
3 | CC1=C(/C=C/C(C)=C/C=C/C(C)=C\C(=O)O)C(C)(C)CCC1 [isotretinoin] | increase in sperm count and sperm motility | – | – | – | –
4 | CCOC(=O)c1ccc(C#Cc2ccc3c(c2)C(C)(C)CCS3)nc1 [tazarotene] | – | far better than those of acitretin/etretinate and isotretinoin | less than 0.01% | 7 to 12 | less than 2%
